Measured values: article PMC11238352, “Combination of dual JAK/HDAC inhibitor with regorafenib synergistically reduces tumor growth, metastasis, and regorafenib-induced toxicity in colorectal cancer” (Journal of Experimental & Clinical Cancer Research : CR, 2024)

Legend:
[1] = tested on: SW480 cells; assay: Cell cycle analysis by flow cytometry; type: cell-based; conditions: SW480, 24 h, 500 nM
Procedure: To evaluate the effect of drugs on cell cycle arrest, SW480 and RKO cells were seeded, 1 × 10^6/dish in triplicates in four groups: vehicle, JAK/HDACi, regorafenib, and their combination (for 24 h, following procedure described in our previous study. Cell cycle analysis was performed using BD LSR FortessaTM Flow Cytometer (BD Biosciences, Mountain View, CA).

[2] = tested on: luciferase-tagged HT29 cells; assay: HT29 luciferase experimental metastasis model; type: in vivo; conditions: NSG mice
Procedure: To assess the effect of JAK/HDACi, regorafenib and their combination drug treatments on metastasis, an experiment was performed with 6-week-old NOD/SCID/IL2γ receptor-null (NSG) mice (male and female) as described. All procedures and experimental protocols were approved and conducted in compliance (IACUC-21501). For metastasis experiments, as described previously, tail vein injections with HT29 cells (0.5 × 10^6) carrying a luciferase expression construct were conducted. Mice were imaged at 0, 10, and 30 days post injection, and treated with vehicle or drugs (with JAK/HDACi, regorafenib and their combination). Drug treatments were performed as described in PDX experiment. Bioluminescence imaging was accomplished using an IVIS Lumina III instrument (Perkin Elmer, Waltham, MA), and mice were injected with luciferin 10 min prior to imaging. After 30 days, mouse lungs and kidneys were dissected, and ex vivo analyses were performed.

[3] = mouse, in vivo
From the text: Upon completion of the experiment for 30 days in HT29 metastasis model, before mice were sacrificed, blood was collected and serum was isolated to evaluate liver and kidney functions to assess toxicity with JAK/HDACi and regorafenib alone, and their combination treatment, using a comprehensive Panel EWrap (Cat# 6330-COMP) by a DRY CHEM 4000 Analyzer.

[4] = target: T1, PDGFR[alpha] (Homo sapiens, UniProt P16234); assay: PamStation PTK kinomic profiling; type: cell-based; conditions: change from DMSO control
T1 construct: cell lysates were prepared; endogenous in cells; host or cells: SW480 and RKO
T1 sequence (P16234 24-1089): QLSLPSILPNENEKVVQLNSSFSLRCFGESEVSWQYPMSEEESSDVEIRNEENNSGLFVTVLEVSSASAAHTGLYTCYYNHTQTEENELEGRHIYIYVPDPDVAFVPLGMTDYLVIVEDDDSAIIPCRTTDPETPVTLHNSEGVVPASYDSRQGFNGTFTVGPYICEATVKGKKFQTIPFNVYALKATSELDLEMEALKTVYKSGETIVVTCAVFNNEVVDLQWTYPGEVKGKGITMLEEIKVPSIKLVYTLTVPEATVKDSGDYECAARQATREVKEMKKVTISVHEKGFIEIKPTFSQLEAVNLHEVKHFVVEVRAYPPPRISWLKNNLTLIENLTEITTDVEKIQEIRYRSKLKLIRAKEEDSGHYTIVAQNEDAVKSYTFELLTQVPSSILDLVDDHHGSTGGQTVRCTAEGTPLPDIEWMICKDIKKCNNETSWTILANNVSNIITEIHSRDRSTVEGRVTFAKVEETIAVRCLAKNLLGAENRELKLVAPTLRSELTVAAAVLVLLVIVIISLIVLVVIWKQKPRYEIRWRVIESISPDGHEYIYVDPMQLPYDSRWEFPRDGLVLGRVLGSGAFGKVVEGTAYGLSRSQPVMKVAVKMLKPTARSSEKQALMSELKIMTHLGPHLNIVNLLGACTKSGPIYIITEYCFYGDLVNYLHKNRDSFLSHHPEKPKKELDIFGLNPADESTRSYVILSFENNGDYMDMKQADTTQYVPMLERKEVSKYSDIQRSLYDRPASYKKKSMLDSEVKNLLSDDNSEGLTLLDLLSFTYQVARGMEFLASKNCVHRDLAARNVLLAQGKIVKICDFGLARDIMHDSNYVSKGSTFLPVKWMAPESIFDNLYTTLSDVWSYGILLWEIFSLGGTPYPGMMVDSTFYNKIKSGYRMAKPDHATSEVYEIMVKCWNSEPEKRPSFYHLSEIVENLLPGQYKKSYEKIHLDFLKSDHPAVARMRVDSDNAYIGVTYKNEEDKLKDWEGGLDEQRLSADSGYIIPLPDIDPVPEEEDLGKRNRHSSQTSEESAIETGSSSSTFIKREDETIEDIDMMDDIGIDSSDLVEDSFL
Procedure: (§1) SW480 and RKO cells were treated with vehicle (DMSO), JAK/HDACi, regorafenib, and their combination for 45 min, and cell lysates were prepared. Tyrosine kinase (PTK) activity (kinomic) profiling was performed using the PamStation®12 platform (PamGene, BV, The Netherlands). As per standard kinomic protocol as described previously. Whole-chip comparative analysis (BioNavigator Upkin PTK v8.0) was performed between groups generating Mean Kinase Statistics (direction of change).

[5] = target: T2, FAK2 (Homo sapiens, UniProt Q14289); assay: PamStation PTK kinomic profiling; type: cell-based; conditions: change from DMSO control
T2 construct: cell lysates were prepared; endogenous in cells; host or cells: SW480 and RKO
T2 sequence (Q14289 whole entry): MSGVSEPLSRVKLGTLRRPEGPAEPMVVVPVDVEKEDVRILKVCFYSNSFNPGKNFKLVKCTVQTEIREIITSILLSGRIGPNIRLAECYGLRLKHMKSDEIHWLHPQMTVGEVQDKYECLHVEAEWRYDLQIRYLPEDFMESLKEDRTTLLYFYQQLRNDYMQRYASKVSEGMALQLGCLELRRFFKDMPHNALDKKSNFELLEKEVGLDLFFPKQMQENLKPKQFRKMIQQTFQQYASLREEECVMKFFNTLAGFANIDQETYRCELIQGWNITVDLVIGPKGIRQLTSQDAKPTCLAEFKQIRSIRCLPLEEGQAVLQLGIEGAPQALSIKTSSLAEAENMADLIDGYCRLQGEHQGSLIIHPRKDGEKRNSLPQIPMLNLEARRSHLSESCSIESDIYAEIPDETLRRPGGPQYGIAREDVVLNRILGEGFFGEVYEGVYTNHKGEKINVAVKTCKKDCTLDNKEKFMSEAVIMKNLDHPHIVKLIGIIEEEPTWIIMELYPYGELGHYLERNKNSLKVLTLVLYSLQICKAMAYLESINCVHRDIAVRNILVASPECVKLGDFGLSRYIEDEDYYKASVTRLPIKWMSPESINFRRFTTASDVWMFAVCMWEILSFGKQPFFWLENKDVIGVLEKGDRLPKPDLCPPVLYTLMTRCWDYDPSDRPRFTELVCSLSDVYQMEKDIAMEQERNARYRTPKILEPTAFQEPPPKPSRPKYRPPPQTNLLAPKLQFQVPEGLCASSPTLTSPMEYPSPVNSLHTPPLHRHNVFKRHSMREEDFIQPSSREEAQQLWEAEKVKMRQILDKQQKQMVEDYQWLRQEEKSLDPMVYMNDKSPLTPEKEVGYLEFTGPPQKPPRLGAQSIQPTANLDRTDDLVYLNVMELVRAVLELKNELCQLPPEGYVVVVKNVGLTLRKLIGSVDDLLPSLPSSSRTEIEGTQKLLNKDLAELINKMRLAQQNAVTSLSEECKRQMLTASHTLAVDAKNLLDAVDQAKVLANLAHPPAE
Procedure: as §1

[6] = target: T3, HER2 (Homo sapiens, UniProt P04626); assay: PamStation PTK kinomic profiling; type: cell-based; conditions: change from DMSO control
T3 construct: cell lysates were prepared; endogenous in cells; host or cells: SW480 and RKO
T3 sequence (P04626 23-1255): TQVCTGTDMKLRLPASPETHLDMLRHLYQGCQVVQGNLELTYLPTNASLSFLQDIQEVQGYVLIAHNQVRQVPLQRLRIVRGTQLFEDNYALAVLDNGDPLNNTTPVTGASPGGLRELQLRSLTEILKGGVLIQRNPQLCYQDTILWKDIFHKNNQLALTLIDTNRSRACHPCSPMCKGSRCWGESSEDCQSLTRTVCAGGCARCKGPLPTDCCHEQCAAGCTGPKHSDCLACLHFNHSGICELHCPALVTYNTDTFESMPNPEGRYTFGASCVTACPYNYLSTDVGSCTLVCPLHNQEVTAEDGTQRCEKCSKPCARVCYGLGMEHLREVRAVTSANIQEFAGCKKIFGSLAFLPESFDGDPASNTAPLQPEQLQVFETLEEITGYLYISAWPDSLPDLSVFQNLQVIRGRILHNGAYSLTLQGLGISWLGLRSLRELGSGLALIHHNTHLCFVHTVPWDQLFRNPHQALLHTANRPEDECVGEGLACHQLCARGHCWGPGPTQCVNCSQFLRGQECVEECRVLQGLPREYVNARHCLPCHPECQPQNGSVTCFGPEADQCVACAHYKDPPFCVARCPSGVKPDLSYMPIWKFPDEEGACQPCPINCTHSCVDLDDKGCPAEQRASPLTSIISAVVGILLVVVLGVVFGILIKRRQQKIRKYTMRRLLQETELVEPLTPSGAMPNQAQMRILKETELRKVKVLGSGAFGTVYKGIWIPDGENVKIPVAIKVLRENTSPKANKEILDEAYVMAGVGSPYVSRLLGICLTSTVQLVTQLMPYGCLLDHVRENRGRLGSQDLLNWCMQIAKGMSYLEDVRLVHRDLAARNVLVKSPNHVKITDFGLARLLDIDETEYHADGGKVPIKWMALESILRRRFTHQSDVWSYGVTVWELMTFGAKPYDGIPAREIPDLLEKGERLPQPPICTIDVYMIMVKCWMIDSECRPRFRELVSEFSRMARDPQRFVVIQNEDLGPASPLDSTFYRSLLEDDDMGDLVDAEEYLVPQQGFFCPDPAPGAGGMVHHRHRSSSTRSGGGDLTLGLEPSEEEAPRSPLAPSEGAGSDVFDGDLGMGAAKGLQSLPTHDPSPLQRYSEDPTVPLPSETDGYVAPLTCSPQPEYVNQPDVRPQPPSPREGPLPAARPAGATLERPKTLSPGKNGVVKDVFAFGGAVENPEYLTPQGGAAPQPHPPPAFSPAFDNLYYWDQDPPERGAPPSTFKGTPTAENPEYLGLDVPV
Procedure: as §1

[7] = target: T4, Src (Homo sapiens, UniProt P12931); assay: PamStation PTK kinomic profiling; type: cell-based; conditions: change from DMSO control
T4 construct: cell lysates were prepared; endogenous in cells; host or cells: SW480 and RKO
T4 sequence (P12931 whole entry): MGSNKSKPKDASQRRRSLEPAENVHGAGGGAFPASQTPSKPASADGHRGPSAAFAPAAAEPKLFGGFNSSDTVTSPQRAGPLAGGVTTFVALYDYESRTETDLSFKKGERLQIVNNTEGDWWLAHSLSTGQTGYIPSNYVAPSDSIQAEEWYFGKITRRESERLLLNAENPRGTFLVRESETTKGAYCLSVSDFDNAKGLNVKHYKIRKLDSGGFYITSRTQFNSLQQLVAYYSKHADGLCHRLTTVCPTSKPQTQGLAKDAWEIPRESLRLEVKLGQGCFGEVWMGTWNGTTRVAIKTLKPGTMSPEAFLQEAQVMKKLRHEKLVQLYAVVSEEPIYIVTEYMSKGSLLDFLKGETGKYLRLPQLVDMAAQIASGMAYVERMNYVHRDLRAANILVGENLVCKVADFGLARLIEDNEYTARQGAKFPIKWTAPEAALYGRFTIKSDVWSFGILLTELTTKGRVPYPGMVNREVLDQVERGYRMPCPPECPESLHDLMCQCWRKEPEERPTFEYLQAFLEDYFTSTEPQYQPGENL
Procedure: as §1

[8] = target: T5, EphA3 (Homo sapiens, UniProt P29320); assay: PamStation PTK kinomic profiling; type: cell-based; conditions: change from DMSO control
T5 construct: cell lysates were prepared; endogenous in cells; host or cells: SW480 and RKO
Procedure: as §1

[9] = target: T6, EphA1 (Homo sapiens, UniProt P21709); assay: PamStation PTK kinomic profiling; type: cell-based; conditions: change from DMSO control
T6 construct: cell lysates were prepared; endogenous in cells; host or cells: SW480 and RKO
Procedure: as §1

[10] = target: T7, JAK2 (Homo sapiens, UniProt O60674); assay: PamStation PTK kinomic profiling; type: cell-based; conditions: change from DMSO control
T7 construct: cell lysates were prepared; endogenous in cells; host or cells: SW480 and RKO
Procedure: as §1

[11] = target: T8, FAK1 (Homo sapiens, UniProt Q05397); assay: PamStation PTK kinomic profiling; type: cell-based; conditions: change from DMSO control
T8 construct: cell lysates were prepared; endogenous in cells; host or cells: SW480 and RKO
T8 sequence (Q05397 whole entry): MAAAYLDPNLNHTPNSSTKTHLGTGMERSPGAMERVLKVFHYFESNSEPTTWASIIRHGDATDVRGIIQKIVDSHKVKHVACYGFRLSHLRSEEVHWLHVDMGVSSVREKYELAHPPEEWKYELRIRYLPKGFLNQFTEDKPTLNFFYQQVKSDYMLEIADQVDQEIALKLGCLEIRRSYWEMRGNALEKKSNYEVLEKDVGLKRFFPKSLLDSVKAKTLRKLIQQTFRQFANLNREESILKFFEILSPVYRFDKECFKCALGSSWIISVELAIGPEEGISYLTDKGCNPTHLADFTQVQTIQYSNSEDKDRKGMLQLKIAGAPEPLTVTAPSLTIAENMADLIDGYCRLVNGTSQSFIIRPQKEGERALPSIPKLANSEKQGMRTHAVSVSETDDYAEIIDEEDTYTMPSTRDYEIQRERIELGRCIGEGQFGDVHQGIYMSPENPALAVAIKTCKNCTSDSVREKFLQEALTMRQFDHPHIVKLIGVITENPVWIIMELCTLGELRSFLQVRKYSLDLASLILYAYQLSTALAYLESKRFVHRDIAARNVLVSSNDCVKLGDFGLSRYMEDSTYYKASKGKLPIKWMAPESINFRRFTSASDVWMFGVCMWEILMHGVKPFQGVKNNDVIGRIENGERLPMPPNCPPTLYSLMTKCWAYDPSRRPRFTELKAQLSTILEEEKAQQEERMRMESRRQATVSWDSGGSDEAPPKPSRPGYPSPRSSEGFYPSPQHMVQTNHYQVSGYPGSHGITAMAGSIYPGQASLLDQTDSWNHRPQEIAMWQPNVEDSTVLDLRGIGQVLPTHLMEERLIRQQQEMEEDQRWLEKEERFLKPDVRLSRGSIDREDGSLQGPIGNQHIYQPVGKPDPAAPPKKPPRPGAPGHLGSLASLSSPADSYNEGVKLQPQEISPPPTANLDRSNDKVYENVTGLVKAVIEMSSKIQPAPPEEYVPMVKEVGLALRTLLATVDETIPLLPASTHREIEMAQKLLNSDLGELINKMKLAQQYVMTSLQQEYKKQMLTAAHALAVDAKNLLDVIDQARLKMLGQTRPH
Procedure: as §1

[12] = target: T9, PDGFR[beta] (Homo sapiens, UniProt P09619); assay: PamStation PTK kinomic profiling; type: cell-based; conditions: change from DMSO control
T9 construct: cell lysates were prepared; endogenous in cells; host or cells: SW480 and RKO
Procedure: as §1

[13] = target: T10, FLT1 (Homo sapiens, UniProt P17948); assay: PamStation PTK kinomic profiling; type: cell-based; conditions: change from DMSO control
T10 construct: endogenous in cells; host or cells: SW480 and RKO
Procedure: as §1

[14] = target: T11, FLT3 (Homo sapiens, UniProt P36888); assay: PamStation PTK kinomic profiling; type: cell-based; conditions: change from DMSO control
T11 construct: we conducted kinome analysis on lysates of SW480 and RKO cells; endogenous in cells; host or cells: SW480 and RKO cells
Procedure: as §1

[15] = target: T12, EphA8 (Homo sapiens, UniProt P29322); assay: PamStation PTK kinomic profiling; type: cell-based; conditions: change from DMSO control
T12 construct: cell lysates were prepared; endogenous in cells; host or cells: SW480 and RKO
Procedure: as §1

[16] = target: T13, EGFR (Homo sapiens, UniProt P00533); assay: PamStation PTK kinomic profiling; type: cell-based; conditions: change from DMSO control
T13 construct: cell lysates were prepared; endogenous in cells; host or cells: SW480 and RKO
Procedure: as §1

## CNC(=O)c1cc(Oc2ccc(NC(=O)Nc3ccc(Cl)c(C(F)(F)F)c3)c(F)c2)ccn1 [regorafenib]
[1]
  cells arrested at the G0-G1 phase: 39.1%
  cells in synthesis (S) phase: 50%
[2]
  bioluminescence intensity on day 30th: reduced intensities
[3]
  ALT: 16 U/L
  Albumin/Globulin: 1.0
  Creatinine: 0.4 mg/dL
  Globulin: 2.6 g/dL
  Total Billirubin: 0.5 mg/dL
  toxicity by serum analysis (liver and kidney functions): no evident toxicity
[4]; RKO, 45 min
  Mean Kinase Statistic, PDGFR[alpha]: 0.135
[4]; SW480, 45 min
  Mean Kinase Statistic, PDGFR[alpha]: -0.175
[5]; RKO, 45 min
  Mean Kinase Statistic, FAK2: -0.049
[5]; SW480, 45 min
  Mean Kinase Statistic, FAK2: -0.181
[6]; RKO, 45 min
  Mean Kinase Statistic, HER2: 0.090
[6]; SW480, 45 min
  Mean Kinase Statistic, HER2: -0.225
[7]; RKO, 45 min
  Mean Kinase Statistic, Src: -0.068
[7]; SW480, 45 min
  Mean Kinase Statistic, Src: -0.128
[8]; RKO, 45 min
  Mean Kinase Statistic, EphA3: 0.028
[8]; SW480, 45 min
  Mean Kinase Statistic, EphA3: -0.136
[9]; RKO, 45 min
  Mean Kinase Statistic, EphA1: 0.168
[9]; SW480, 45 min
  Mean Kinase Statistic, EphA1: -0.125
[10]; RKO, 45 min
  Mean Kinase Statistic, JAK2: 0.236
[10]; SW480, 45 min
  Mean Kinase Statistic, JAK2: -0.116
[11]; RKO, 45 min
  Mean Kinase Statistic, FAK1: 0.052
[11]; SW480, 45 min
  Mean Kinase Statistic, FAK1: -0.131
[12]; RKO, 45 min
  Mean Kinase Statistic, PDGFR[beta]: 0.140
[12]; SW480, 45 min
  Mean Kinase Statistic, PDGFR[beta]: -0.203
[13]; RKO, 45 min
  Mean Kinase Statistic, FLT1: 0.207
[13]; SW480, 45 min
  Mean Kinase Statistic, FLT1: -0.166
[14]; RKO, 45 min
  Mean Kinase Statistic, FLT3: 0.133
[14]; SW480, 45 min
  Mean Kinase Statistic, FLT3: -0.243
[15]; RKO, 45 min
  Mean Kinase Statistic, EphA8: -0.006
[15]; SW480, 45 min
  Mean Kinase Statistic, EphA8: -0.155
[16]; RKO, 45 min
  Mean Kinase Statistic, EGFR: 0.026
[16]; SW480, 45 min
  Mean Kinase Statistic, EGFR: -0.125
